{
  "source": "patent US20220403326A1",
  "about": "“MEDIA FORMULATIONS AND METHODS FOR PRODUCING PROGENITOR T CELLS” (priority 2019, published 2022)",
  "assay_type_in_all_cases": "cell-based, human",
  "key": {"HSPCs [1]": {"tested_on": "HSPCs", "assay": "CFSE proliferation assay of HSPCs on DL4+VCAM-1", "experimental": "To track the number of cell divisions, cells were stained with 2.5 μM CellTrace™ CFSE (ThermoFisher) in PBS and incubated at 37° C. for 8 minutes. CFSE was quenched by adding 5 times the volume of IMDM+BIT and incubating at 37° C. for 5 minutes. Cells were then resuspended in fresh media and seeded on DL4+VCAM-1 for culture. For analysis, cells were collected and stained for CD34, CD7, and CD5 surface markers as described above and analyzed using flow cytometry. Proliferation was modelled using FlowJo™ software and further analysis was performed with R.\nTo track the number of cell divisions in response to each of IL-3 and TNFα, the HSPCs were first stained with carboxyfluorescein succinimidyl ester (CFSE). IL-3 or TNFα were added on day 0 and the number of divisions of each cell was analyzed on days 2, 3, 4 and 5."}, "[2]": {"tested_on": "Notch target genes in CD34+ HSPCs (CD38lo/− and CD38+ fractions)", "assay": "qRT-PCR of Notch target and pro-myeloid genes after 5 days of culture", "text": "Umbilical cord blood (UCB) was collected from consenting donors at Mount Sinai Hospital, Toronto, Ontario, in accordance with institutional research ethics board policies. Mononuclear cells were fractioned via centrifugation using Lympholyte cell separation media (Cedarlane) and red blood cells were lysed using ammonium-chloride-potassium (ACK) lysing buffer prepared in-house. Mononuclear cells were enriched for >90% CD34+ cells using EasySep™ Human CD34+ Positive Selection Kit (Stemcell Technologies) according to the manufacturer's instructions. For certain experiments, enriched CD34+ cells were stained with CD34-APC and CD38-PE antibodies and sorted into CD34+CD38lo/− and CD34+CD38+ fractions using FACS Aria flow cytometer ([…]).\nCells were lysed and RNA isolated using the PureLink™ RNA Micro Kit (Invitrogen) according to the manufacturer's protocol. cDNA was reverse-transcribed from RNA using SuperScript™ III Reverse Transcriptase (Invitrogen) according to the manufacturer's protocol. cDNA was amplified with primers and FastStart SYBR Green Mastermix (Roche) using QuantStudio™ 6 Flex (Applied Biosystems). Relative expression of individual genes was calculated by the delta cycle threshold (ΔCt) method and normalization using β-actin to control for differences in input cDNA.\nTNFα activates the NF-KB pathway, which may regulate Notch target genes or regulate Notch itself (FIG. 3a). To investigate if and how TNFα interacts with Notch, CD34+ HSPCs were first sorted into CD38lo/− and CD38+ fractions, and seeded separately on DL4+VCAM-1 with and without TNFα. Gene expression was measured using qPCR after 5 days of culture (FIG. 3b)."}, "HSPCs [3]": {"tested_on": "HSPCs", "assay": "DL4 coating concentration titration, 14-day culture, with or without TNFα", "details": "lowest DL4 concentration tested; 14 days; with VCAM-1", "experimental": "Tissue culture 96-well plates were coated with DL4-Fc and VCAM-1-Fc (R&D Systems) overnight at 4° C. or for 3-4 hours at room temperature. To coat, DL4 and VCAM-1 were diluted to 15 μg/ml and 2.5 μg/ml, respectively, in 50 μl of phosphate-buffered saline (PBS), resulting in a coating concentration of approximately 24 ng/mm2 of DL4-Fc and 4 ng/mm2 of VCAM-1-Fc. For titration experiments, the concentration of DL4 or VCAM-1 was adjusted accordingly while maintaining a 50 μl volume of PBS. Experiments using 384-well plates scaled were coated similarly but with 16 μl of PBS. Wells were washed once with PBS prior to seeding cells to remove unbound DL4-Fc protein that inhibits Notch signaling.^6\nIn parallel with the Notch pathway inhibition experiment described above, HSPCs were also seeded on DL4+VCAM-1 for 14 days with decreasing concentrations of DL4 (FIG. 4d). […] Representative flow cytometry plots showing differential proT cell induction with decreasing DL4 concentration in the presence or absence of TNFα are shown in FIG. 4f."}, "[4]": {"details": "both CD38lo/− and CD38+ fractions, normalized to β-actin"}},
  "data": [
    {"substance": "TNFα", "values": [
      {"measurement": "proportion of proT2 (CD34+CD7+CD5+) cells", "setting": "HSPCs [1]; day 5", "value": "higher proportion of proT2 cells"},
      {"measurement": "upregulation of CD7", "setting": "HSPCs [1]; days 2-5", "value": "slow to upregulate CD7"},
      {"measurement": "expression of any other Notch target genes or NOTCH1 itself", "setting": "[2]", "value": "No significant differences"},
      {"measurement": "SPI1 expression", "setting": "[2]; CD38lo/− but not CD38+ HSPCs", "value": "downregulated SPI1 slightly"},
      {"measurement": "GATA3 expression", "setting": "[2]; [4]", "value": "upregulated"},
      {"measurement": "TCF7 expression", "setting": "[2]; [4]", "value": "upregulated"},
      {"measurement": "BCL11b expression", "setting": "[2]; only CD38lo/− HSPCs", "value": "upregulated"},
      {"measurement": "CEBPA expression", "setting": "[2]; only the CD38+ fraction", "value": "significantly downregulated"},
      {"measurement": "DL4 coating concentration down to which CD7+CD5+ proT cell development is maintained", "setting": "HSPCs [3]", "value": "≤ 2", "unit": "ng/mm^2"}
    ]}
  ]
}
